Results from patent US9884806B2, “Cyclic vinylogous amides as bromodomain inhibitors” (ICAHN SCHOOL OF MEDICINE AT MOUNT SINAI, priority 2013, dated 2018).
Where two headings read alike, the source gives them in different places.

Tests used:
[1] = biological target: T1, first bromodomain (BrD1) of human BRD4 (Homo sapiens, UniProt O60885); experiment: Fluorescence anisotropy binding assay (competition with FITC-labeled MS417 probe); details: FITC-MS417 probe 80 nM, PBS pH 7.4, 1 hour, 25° C., read-out: BRD4_1 IC50
T1 construct: the first bromodomain (BrD1) of human BRD4; poly-His (cleaved yes); made in house
Method in brief: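 BRD4 BrD1 (His tag removed by thrombin) at 0.25 to 1 μM competed against 80 nM FITC-labeled MS417 in PBS pH 7.4. Anisotropy read after 1 hour at 25° C. Ki derived from fitted IC50 by Nikolovska-Coleska-corrected Cheng-Prusoff equation, one-site competitive model.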

[2] = system: IL-6 secretion in RAW264.7 cells; experiment: LPS-induced IL-6 secretion in murine macrophage RAW264.7 cells (ELISA); format: cell-based; details: LPS 1 μg/ml, 24 hours, mouse IL-6 ELISA
Experimental: LPS-Induced IL-6Secretion In Murine Macrophage Raw264.7 Cells RAW264.7 cells were cultivated in Dulbecco's modified Eagle medium (DMEM) (Hyclone, Logan, Utah) supplemented with 10% FBS (fetal bovine serum) (Hyclone, Logan, Utah) at 37° C. in a humidified atmosphere of 5% CO2. Cells in 96-well plates (0.1 ml, 3×10^5 cells/ml) were treated with the test compounds. After 30 min, all supernatants were removed and cells were treated with LPS (lipopolysaccharide) (1 μg/ml) (Sigma-Aldrich Chemical Co., St. Louis, Mo.) and compounds. After 24 hours, the supernatant was collected and mouse IL-6 protein level was measured using ELISA (enzyme-linked immunosorbent assay) (Thermo Scientific, Pittsburgh, Pa.). The compounds dissolved in DMSO were diluted with culture medium to concentrations from 0.28 to 50,000 nM. The final concentration of DMSO was adjusted to 0.05% (v/v). The assay was measured by an absorption reading at 570 nm using EnVison 2104 Multilabel Reader (PerkinElmer, Inc., Waltham, Mass.). Each experiment was performed at least in triplicate, and plotted using Prim, and an IC50 value was calculated.

[3] = system: mRNA transcript levels of cytokines IL-6, IL-1β and TNFα in RAW264.7 cells; experiment: LPS-induced transcriptional activation of cytokines in murine macrophage cells (quantitative PCR); format: cell-based; details: Mus musculus
Experimental: LPS-Induced Transcriptional Activation of Cytokines in Murine Macrophage Cells RAW264.7 cells were cultivated with or without a treatment of the compounds as described above. Total RNA was isolated the cells using TRIzol reagent (Gibco, Grand Island, N.Y.) for homogenization. The concentration and integrity of RNA were determined by measuring absorbance at a 260 nm/280 nm ratio. Quantitative PCR was performed to determine the mRNA transcript levels of cytokines IL-6, IL-1β and TNFα with specific primers for these target genes. Each experiment was performed at least in triplicate, and plotted using Prim, and an IC50 value was calculated.

[4] = system: NO release in RAW264.7 cells; experiment: LPS-stimulated nitric oxide (NO) release in murine macrophage RAW264.7 cells (Griess reaction); format: cell-based; details: Mus musculus; RAW264.7 cells, LPS 1 μg/ml, 24 hours, nitrite by Griess reaction; read-out: IC50 in inhibition of LPS-induced NO release
Experimental: LPS-Stimulated Nitric Oxide (NO) Release in Murine Macrophage RAW264.7 Cells
RAW264.7 cells was cultivated in DMEM supplemented with 10% FBS at 37° C. in a humidified atmosphere of 5% CO2. Cells in 96-well plates (0.1 ml, 3×10^5 cells/ml) were treated with the test compounds. After 30 min, all supernatants were removed and cells were treated with LPS (1 μg/ml) and the test compounds. After 24 hours, the level of nitrite was measured using Griess reaction G2930 (Promega Corp., Madison, Wis.) [see Bredt and Snyder, Ann Rev Biochem 63, 175-195 (1994)]. The test compounds dissolved in DMSO were diluted with culture medium to concentrations from 0.28 to 50,000 nM. The final concentration of DMSO was adjusted to 0.05% (v/v). The nitrite production was measured by spectrophotometry at 520 nm using EnVison 2104 Multilabel Reader (PerkinElmer, Inc., Waltham, Mass.). Each experiment was performed at least in triplicate and plotted using Prism.

BRD4_2 = biological target: T2, BRD4_2 (Homo sapiens, UniProt O60885); experiment: Fluorescence anisotropy binding assay (competition with FITC-labeled MS417 probe), BRD4_2; details: FITC-MS417 probe 80 nM, PBS pH 7.4, 1 hour, 25° C.
T2 construct: contains two tandem bromodomains (BrD1 and BrD2)

HIV-1 transgenic mice = details: model for HIV-associated nephropathy; cited from earlier work
[5] = system: T-cell-transfer colitis model in Rag1−/− mice; experiment: T-cell-transfer colitis study and histopathology; format: in vivo
Excerpt: FIG. 1 is a graph of body weight as percent change from baseline vs time (in weeks) for treated and untreated mice in which inflammatory colitis has been induced.
FIG. 2 is a gray-scale rendering of a photograph showing the gross morphology of the intestines for treated and untreated mice in which inflammatory colitis has been induced compared to a normal (control) intestine.
T-Cell-Transfer Colitis Study and Histopathology
After 5-7 weeks, mice were killed and colon tissues were excised. Tissues were fixed in 10% buffered formalin and paraffin embedded. The sections (5 μm) of tissue samples stained with hematoxylin and eosin. All the slides were read and scored by an experienced pathologist without previous knowledge of the type of treatment. The degree of inflammation in the epithelium, submucosa and muscularis propria was scored separately.

SMILES | IC50 [1] | IC50 [2] | IC50 ([3]; RAW264.7, read-out: IC50 in inhibition of transcriptional activation of the cytokines IL-6, IL-1β and TNFα) | IC50 [4] | IC50 (BRD4_2) | inflammation and kidney injury (HIV-1 transgenic mice) | IC50 ([3]; RAW264.7 cells, LPS, quantitative PCR of mRNA transcript levels, read-out: IC50 in inhibition of transcriptional activation of the cytokines IL-6, IL-1β and TNFα) | development of colitis ([5]; CD4+CD45RBhi T cells injected intra-peritoneally into Rag1−/− mice) | gross morphology of the intestines ([5]; after 5-7 weeks, FIG. 2, treated mice vs disease group) | loss of body weight ([5]; mice weighed every week, FIG. 1)
CC1=C(Nc2ccc(C(=O)Nc3ccccc3C)cc2Cl)CCC1=O [Example 04-20, 3-chloro-4-((2-methyl-3-oxocyclopent-1-en-1-yl)amino)-N-(o-tolyl)benzamide] | < 1 µM | 0.2 to 1 µM | 0.1 to 5 µM | 0.1 to 5 µM | 1 to 10 µM | – | – | – | – | –
COC(=O)C[C@@H]1N=C(c2ccc(Cl)cc2)c2c(sc(C)c2C)-n2c(C)nnc21 [MS417] | – | – | – | – | – | effectively ameliorated inflammation and kidney injury | – | – | – | –
COc1ccc(NC(=O)c2ccc(NC3=C(C)C(=O)CC3)c(Cl)c2)cc1 [Example 04-19, 3-chloro-N-(4-methoxyphenyl)-4-((2-methyl-3-oxocyclopent-1-en-1-yl)amino)benzamide] | < 1 µM | 0.2 to 1 µM | – | 0.1 to 5 µM | 1 to 10 µM | – | 0.1 to 5 µM | inhibits the development of colitis | gross morphology of the intestines is preserved | significantly (P<0.05) inhibits the loss of body weight
